Measurements from PMC7037732, “Synthesis of Combretastatin A-4 and 3′-Aminocombretastatin A-4 derivatives with Aminoacid Containing Pendants and Study of their Interaction with Tubulin and as Downregulators of the VEGF, hTERT and c-Myc Gene Expression” (Molecules, 2020).
Values joined by “and” are separate entries in the source; they are usually repeats but may differ in a detail not shown here. Equal entries are not always repeated. “Also recorded” adds a separate entry of the source.

Columns and labels:
tubulin = assay: In vitro tubulin polymerization by turbidimetry (It50); assay type: biochemical; conditions: turbidimetry at 350 nm, 37 °C; for Effect on in vitro tubulin polymerization: result in words; for It50 (time required to reach 50% of the polymerization): control 16.6 ± 1.0
Description: Figure 3 also includes polymerization curves in the presence of CA-4, AmCA-4 and paclitaxel. This test was also performed using paclitaxel, a microtubule stabilizing agent, as a control for the complete formation of microtubules (see Figure 3).

A-549 cells = assay: Effect on the cellular microtubule network (immunofluorescence); assay type: cell-based, human
Description: The effect on the cellular microtubule network of CA-4 derivatives was studied for compounds 1, 3.7 (L-Thr-OMe), 3.8 (L-Tyr-OMe), 4.2 (L-Val) and 4.3 (L-Leu), which were those accumulating more cells in the G2/M phase. Thus, A-549 cells were incubated for 24 h in the presence of the above compounds and CA-4 at the concentrations indicated in Figure 4.
The effect of some derivatives on the cellular microtubule network were also studied on A-549 cells. The selected compounds were 7.1 (Fmoc-Gly) (0.5 μM), 8.1 (Gly) (2 μM), 8.2 (L-Ala) (3 μM) and 10.1 (D-Val) (40 μM), which were those exerting a higher effect on the cell cycle.
For immunofluorescence microscopy of the microtubule network, 10^6 cells were plated on cover glass and incubated with the different drugs. Cells were then fixed in 3.7% formaldehyde (in PBS pH 7.4) for 20 min at room temperature and permeabilized with PBS-Triton X-100 0.5% for 10 min at room temperature. Direct immunostaining was carried out for 2 h at room temperature with a primary FITC-conjugated anti-α-tubulin antibody (dilution 1:400 in PBS-BSA 1% from a 1 mg/mL solution; monoclonal antibody, clone DM1A; Sigma-Aldrich, Darmstadt, Germany.). Next, cells were incubated for 45 min at room temperature in darkness with secondary Alexa Fluor 488-conjugated antibodies (dilution 1:200 each from 1.5 mg/mL; Molecular Probe, France). Then, cells were washed in PBS and cover glasses were mounted with a drop of ProLong® antifade solution (Invitrogen). The cytoskeleton was imaged by a confocal laser scanning microscope (CLSM) Leica SP5 with a Leica inverted microscope, equipped with a Plan-Apochromat 63× oil immersion objective (NA = 1.4). Each image was recorded with the CLSM’s spectral mode selecting specific domains of the emission spectrum. The FITC fluorophore was excited at 488 nm with an argon laser, and its fluorescence emission was collected between 496 nm and 535 nm.

| SMILES | Effect on in vitro tubulin polymerization (tubulin) | It50 (time required to reach 50% of the polymerization) (tubulin) | also measured |
| --- | --- | --- | --- |
| COc1ccc(/C=C\c2cc(OC)c(OC)c(OC)c2)cc1N [AmCA-4, 3′-aminocombretastatin A-4] | almost no absorbance is detected | – | Effect on the microtubule network (A-549 cells; A-549, 24 h, 50 nM): total depolymerization of microtubules |
| COc1ccc(/C=C\c2cc(OC)c(OC)c(OC)c2)cc1O [CA-4, combretastatin A-4] | almost no absorbance is detected | – | Effect on the microtubule network (A-549 cells; A-549, 24 h, 50 nM): greatly depolymerizes microtubules |
| COc1ccc(/C=C\c2cc(OC)c(OC)c(OC)c2)cc1NC(=O)CNC(=O)OCC1c2ccccc2-c2ccccc21 [Compound 7.1] | – | 16 ± 3 min | Effect on the microtubule network (A-549 cells; A-549, 0.5 μM): almost total depolymerization of the microtubule network |
| COc1ccc(/C=C\c2cc(OC)c(OC)c(OC)c2)cc1NC(=O)CN [Compound 8.1] | – | 18.5 ± 2.1 min | Effect on the microtubule network (A-549 cells; A-549, 2 μM): almost total depolymerization of the microtubule network |
| COc1ccc(/C=C\c2cc(OC)c(OC)c(OC)c2)cc1NC(=O)[C@H](C)N [Compound 8.2] | able to delay the polymerization process; also recorded: partial inhibitors of the polymerization process; also recorded: partial inhibitors of the in vitro polymerization of tubulin | 48 ± 5 min | Effect on the microtubule network (A-549 cells; A-549, 3 μM): almost total depolymerization of the microtubule network |
| COc1ccc(/C=C\c2cc(OC)c(OC)c(OC)c2)cc1NC(=O)[C@@H](N)Cc1ccccc1 [Compound 8.5] | – | – | Effect on the microtubule network (A-549 cells; A-549, 0.5 μM): much less active |
| COc1ccc(/C=C\c2cc(OC)c(OC)c(OC)c2)cc1NC(=O)[C@@H](N)C(C)O (some centres unmarked) [Compound 8.7] | able to delay the polymerization process; also recorded: partial inhibitors of the polymerization process; also recorded: partial inhibitors of the in vitro polymerization of tubulin | 65 min and 65 ± 7 min | – |
